For seven molecules, EC50, Intrinsic activity and pKD results are on record in ChEMBL document CHEMBL1159136, “Dipeptide mimetics can substitute for the receptor activation domain resulting in highly potent analogues of hPTH(136)” (Bioorg Med Chem Lett, 1996).

Square brackets hold non-standard residues; d marks the D form. Peptide text beside a SMILES is read from it. * marks the point of attachment. X6 = CC(=O)N(C(=O)[C@H](C)N)[C@H](C(=O)*)C(C)C; X7 = C[C@H](/C=C(\Cl)[C@H](C)N)C(=O)*; X5 = C[C@H](/C=C(\F)[C@H](C)N)C(=O)*; X4 = CC(=O)N(CC(=O)*)C(=O)[C@H](C)N; NMeV = CN[C@H](C(=O)O)C(C)C; N(iPr)Gly = CC(C)NCC(=O)O; NMeA = CN[C@@H](C)C(=O)O

The subject of test [1] is OK-1. The test can be described thus: Accumulation of cyclic AMP in OK-1 cells. The test is classed as functional, cell-based, opossum. As to conditions: opossum, OK-1.
Test [2] concerns UMR106-06. Kind of test: Compound was evaluated for the intrinsic activity for accumulation of cyclic AMP in UMR10606 (rat osteosarcoma) cells. The test is classed as functional.
Test [3] has as its system UMR106-06. Kind of test: Compound was evaluated for the accumulation of cyclic AMP in UMR10606 (rat osteosarcoma) cells. It is filed as functional, cell-based. As to conditions: Rattus norvegicus, UMR106-06.
Test [4] has as its system OK-1. The test can be described thus: Compound was evaluated for the intrinsic activity for accumulation of cyclic AMP in OK-1 cells. It is filed as functional, opossum.
The test system of test [5] is OK-1. The test can be described thus: Displacement of [125I]-chick PTHrP-(1-36)-NH2 from opossum (OK-1) kidney cells. The test is classed as functional. (Loss of bound radioactivity is the signal in a displacement assay; it reports binding, not function.)

A word on the EC50: it is the concentration needed to bring the measured effect to its halfway point. Read a high EC50 as a need for much substance. As a reminder, the pKD is −log10 of the KD, conventionally taken in molar units. A low value points to a large KD. Turning to `CC[C@H](C)[C@H](NC(=O)[C@H](CCC(=O)O)NC(=O)[C@H](CO)NC(=O)CN(C(=O)[C@H](C)N)C(C)C)C(=O)N[C@@H](CCC(N)=O)C(=O)N[C@@H](CC(C)C)C(=O)N[C@@H](CCSC)C(=O)N[C@@H](Cc1c[nH]cn1)C(=O)N[C@@H](CC(N)=O)C(=O)N[C@@H](CC(C)C)C(=O)NCC(=O)N[C@@H](CCCCN)C(=O)N[C@@H](Cc1c[nH]cn1)C(=O)N[C@@H](CC(C)C)C(=O)N[C@@H](CC(N)=O)C(=O)N[C@@H](CO)C(=O)N[C@@H](CCSC)C(=O)N[C@@H](CCC(=O)O)C(=O)N[C@@H](CCCN=C(N)N)C(=O)N[C@H](C(=O)N[C@@H](CCC(=O)O)C(=O)N[C@@H](Cc1c[nH]c2ccccc12)C(=O)N[C@@H](CC(C)C)C(=O)N[C@@H](CCCN=C(N)N)C(=O)N[C@@H](CCCCN)C(=O)N[C@@H](CCCCN)C(=O)N[C@@H](CC(C)C)C(=O)N[C@@H](CCC(N)=O)C(=O)N[C@@H](CC(=O)O)C(=O)N[C@H](C(=O)N[C@@H](Cc1c[nH]cn1)C(=O)N[C@@H](CC(N)=O)C(=O)N[C@@H](Cc1ccccc1)C(=O)N[C@H](C(=O)N[C@@H](C)C(N)=O)C(C)C)C(C)C)C(C)C` (H-A[N(iPr)Gly]SEIQLMHNLGKHLNSMERVEWLRKKLQDVHNFVA-NH2), the concentration for a half-maximal effect (EC50) in test [1] was 97.2 nM; in test [3], 30 nM. The Intrinsic activity in test [2] is recorded as 0.05; in test [4] it was 0.5. Further, the negative-log KD (pKD) in test [5] was 7.4.
Consider `CC[C@H](C)[C@H](NC(=O)[C@H](CCC(=O)O)NC(=O)[C@H](CO)NC(=O)[C@H](C(C)C)N(C)C(=O)[C@H](C)N)C(=O)N[C@@H](CCC(N)=O)C(=O)N[C@@H](CC(C)C)C(=O)N[C@@H](CCSC)C(=O)N[C@@H](Cc1c[nH]cn1)C(=O)N[C@@H](CC(N)=O)C(=O)N[C@@H](CC(C)C)C(=O)NCC(=O)N[C@@H](CCCCN)C(=O)N[C@@H](Cc1c[nH]cn1)C(=O)N[C@@H](CC(C)C)C(=O)N[C@@H](CC(N)=O)C(=O)N[C@@H](CO)C(=O)N[C@@H](CCSC)C(=O)N[C@@H](CCC(=O)O)C(=O)N[C@@H](CCCN=C(N)N)C(=O)N[C@H](C(=O)N[C@@H](CCC(=O)O)C(=O)N[C@@H](Cc1c[nH]c2ccccc12)C(=O)N[C@@H](CC(C)C)C(=O)N[C@@H](CCCN=C(N)N)C(=O)N[C@@H](CCCCN)C(=O)N[C@@H](CCCCN)C(=O)N[C@@H](CC(C)C)C(=O)N[C@@H](CCC(N)=O)C(=O)N[C@@H](CC(=O)O)C(=O)N[C@H](C(=O)N[C@@H](Cc1c[nH]cn1)C(=O)N[C@@H](CC(N)=O)C(=O)N[C@@H](Cc1ccccc1)C(=O)N[C@H](C(=O)N[C@@H](C)C(N)=O)C(C)C)C(C)C)C(C)C` (H-A[NMeV]SEIQLMHNLGKHLNSMERVEWLRKKLQDVHNFVA-NH2), for which the EC50 in test [1] stood at 3.5 nM; in test [3], 4.4 nM. Moreover, the Intrinsic activity stood at 0.9 in test [2] and 1 in test [4]. In test [5], this molecule came in with a negative-log KD (pKD) of 8.4.
On to `CC[C@H](C)[C@H](NC(=O)[C@H](CCC(=O)O)NC(=O)[C@H](CO)NC(=O)[C@H](C(C)C)N(C)C(=O)[C@H](C)NC)C(=O)N[C@@H](CCC(N)=O)C(=O)N[C@@H](CC(C)C)C(=O)N[C@@H](CCSC)C(=O)N[C@@H](Cc1c[nH]cn1)C(=O)N[C@@H](CC(N)=O)C(=O)N[C@@H](CC(C)C)C(=O)NCC(=O)N[C@@H](CCCCN)C(=O)N[C@@H](Cc1c[nH]cn1)C(=O)N[C@@H](CC(C)C)C(=O)N[C@@H](CC(N)=O)C(=O)N[C@@H](CO)C(=O)N[C@@H](CCSC)C(=O)N[C@@H](CCC(=O)O)C(=O)N[C@@H](CCCN=C(N)N)C(=O)N[C@H](C(=O)N[C@@H](CCC(=O)O)C(=O)N[C@@H](Cc1c[nH]c2ccccc12)C(=O)N[C@@H](CC(C)C)C(=O)N[C@@H](CCCN=C(N)N)C(=O)N[C@@H](CCCCN)C(=O)N[C@@H](CCCCN)C(=O)N[C@@H](CC(C)C)C(=O)N[C@@H](CCC(N)=O)C(=O)N[C@@H](CC(=O)O)C(=O)N[C@H](C(=O)N[C@@H](Cc1c[nH]cn1)C(=O)N[C@@H](CC(N)=O)C(=O)N[C@@H](Cc1ccccc1)C(=O)N[C@H](C(=O)N[C@@H](C)C(N)=O)C(C)C)C(C)C)C(C)C` (H-[NMeA][NMeV]SEIQLMHNLGKHLNSMERVEWLRKKLQDVHNFVA-NH2), for which the EC50 in test [1] was found to be 6.5 nM; in test [3] it was 4.9 nM. The Intrinsic activity in test [2] and in test [4] was 1 in each case. For the same molecule, in test [5], the pKD came out at 8.5.
Turning to `CC[C@H](C)[C@H](NC(=O)[C@H](CCC(=O)O)NC(=O)[C@H](CO)NC(=O)CN(C(C)=O)C(=O)[C@H](C)N)C(=O)N[C@@H](CCC(N)=O)C(=O)N[C@@H](CC(C)C)C(=O)N[C@@H](CCSC)C(=O)N[C@@H](Cc1c[nH]cn1)C(=O)N[C@@H](CC(N)=O)C(=O)N[C@@H](CC(C)C)C(=O)NCC(=O)N[C@@H](CCCCN)C(=O)N[C@@H](Cc1c[nH]cn1)C(=O)N[C@@H](CC(C)C)C(=O)N[C@@H](CC(N)=O)C(=O)N[C@@H](CO)C(=O)N[C@@H](CCSC)C(=O)N[C@@H](CCC(=O)O)C(=O)N[C@@H](CCCN=C(N)N)C(=O)N[C@H](C(=O)N[C@@H](CCC(=O)O)C(=O)N[C@@H](Cc1c[nH]c2ccccc12)C(=O)N[C@@H](CC(C)C)C(=O)N[C@@H](CCCN=C(N)N)C(=O)N[C@@H](CCCCN)C(=O)N[C@@H](CCCCN)C(=O)N[C@@H](CC(C)C)C(=O)N[C@@H](CCC(N)=O)C(=O)N[C@@H](CC(=O)O)C(=O)N[C@H](C(=O)N[C@@H](Cc1c[nH]cn1)C(=O)N[C@@H](CC(N)=O)C(=O)N[C@@H](Cc1ccccc1)C(=O)N[C@H](C(=O)N[C@@H](C)C(N)=O)C(C)C)C(C)C)C(C)C` (X4-SEIQLMHNLGKHLNSMERVEWLRKKLQDVHNFVA-NH2), the EC50 in test [1] was 117 nM; in test [3], 958 nM. For the same molecule, the results for the Intrinsic activity in test [2] and in test [4] were 0.8 and 0.2, respectively. In test [5], the negative-log KD (pKD) amounted to 7.1.
Turning to `CC[C@H](C)[C@H](NC(=O)[C@H](CCC(=O)O)NC(=O)[C@H](CO)NC(=O)[C@H](C)/C=C(\F)[C@H](C)N)C(=O)N[C@@H](CCC(N)=O)C(=O)N[C@@H](CC(C)C)C(=O)N[C@@H](CCSC)C(=O)N[C@@H](Cc1c[nH]cn1)C(=O)N[C@@H](CC(N)=O)C(=O)N[C@@H](CC(C)C)C(=O)NCC(=O)N[C@@H](CCCCN)C(=O)N[C@@H](Cc1c[nH]cn1)C(=O)N[C@@H](CC(C)C)C(=O)N[C@@H](CC(N)=O)C(=O)N[C@@H](CO)C(=O)N[C@@H](CCSC)C(=O)N[C@@H](CCC(=O)O)C(=O)N[C@@H](CCCN=C(N)N)C(=O)N[C@H](C(=O)N[C@@H](CCC(=O)O)C(=O)N[C@@H](Cc1c[nH]c2ccccc12)C(=O)N[C@@H](CC(C)C)C(=O)N[C@@H](CCCN=C(N)N)C(=O)N[C@@H](CCCCN)C(=O)N[C@@H](CCCCN)C(=O)N[C@@H](CC(C)C)C(=O)N[C@@H](CCC(N)=O)C(=O)N[C@@H](CC(=O)O)C(=O)N[C@H](C(=O)N[C@@H](Cc1c[nH]cn1)C(=O)N[C@@H](CC(N)=O)C(=O)N[C@@H](Cc1ccccc1)C(=O)N[C@H](C(=O)N[C@@H](C)C(N)=O)C(C)C)C(C)C)C(C)C` (X5-SEIQLMHNLGKHLNSMERVEWLRKKLQDVHNFVA-NH2), the EC50 in test [1] was determined as 9.1 nM; in test [3], 13 nM. For the same molecule, the Intrinsic activity in test [2] is recorded as 0.95; in test [4], 0.6. The molecule also displayed a negative logarithm of the KD (pKD) in test [5] of 8.2.
Regarding `CC[C@H](C)[C@H](NC(=O)[C@H](CCC(=O)O)NC(=O)[C@H](CO)NC(=O)[C@H](C(C)C)N(C(C)=O)C(=O)[C@H](C)N)C(=O)N[C@@H](CCC(N)=O)C(=O)N[C@@H](CC(C)C)C(=O)N[C@@H](CCSC)C(=O)N[C@@H](Cc1c[nH]cn1)C(=O)N[C@@H](CC(N)=O)C(=O)N[C@@H](CC(C)C)C(=O)NCC(=O)N[C@@H](CCCCN)C(=O)N[C@@H](Cc1c[nH]cn1)C(=O)N[C@@H](CC(C)C)C(=O)N[C@@H](CC(N)=O)C(=O)N[C@@H](CO)C(=O)N[C@@H](CCSC)C(=O)N[C@@H](CCC(=O)O)C(=O)N[C@@H](CCCN=C(N)N)C(=O)N[C@H](C(=O)N[C@@H](CCC(=O)O)C(=O)N[C@@H](Cc1c[nH]c2ccccc12)C(=O)N[C@@H](CC(C)C)C(=O)N[C@@H](CCCN=C(N)N)C(=O)N[C@@H](CCCCN)C(=O)N[C@@H](CCCCN)C(=O)N[C@@H](CC(C)C)C(=O)N[C@@H](CCC(N)=O)C(=O)N[C@@H](CC(=O)O)C(=O)N[C@H](C(=O)N[C@@H](Cc1c[nH]cn1)C(=O)N[C@@H](CC(N)=O)C(=O)N[C@@H](Cc1ccccc1)C(=O)N[C@H](C(=O)N[C@@H](C)C(N)=O)C(C)C)C(C)C)C(C)C` (X6-SEIQLMHNLGKHLNSMERVEWLRKKLQDVHNFVA-NH2), the EC50 in test [1] turned out to be 9.9 nM; in test [3] it was 15 nM. Also, the Intrinsic activity was found to be 1 in test [2] and 0.8 in test [4]. Further, the pKD in test [5] is listed as 7.9.
`CC[C@H](C)[C@H](NC(=O)[C@H](CCC(=O)O)NC(=O)[C@H](CO)NC(=O)[C@H](C)/C=C(\Cl)[C@H](C)N)C(=O)N[C@@H](CCC(N)=O)C(=O)N[C@@H](CC(C)C)C(=O)N[C@@H](CCSC)C(=O)N[C@@H](Cc1c[nH]cn1)C(=O)N[C@@H](CC(N)=O)C(=O)N[C@@H](CC(C)C)C(=O)NCC(=O)N[C@@H](CCCCN)C(=O)N[C@@H](Cc1c[nH]cn1)C(=O)N[C@@H](CC(C)C)C(=O)N[C@@H](CC(N)=O)C(=O)N[C@@H](CO)C(=O)N[C@@H](CCSC)C(=O)N[C@@H](CCC(=O)O)C(=O)N[C@@H](CCCN=C(N)N)C(=O)N[C@H](C(=O)N[C@@H](CCC(=O)O)C(=O)N[C@@H](Cc1c[nH]c2ccccc12)C(=O)N[C@@H](CC(C)C)C(=O)N[C@@H](CCCN=C(N)N)C(=O)N[C@@H](CCCCN)C(=O)N[C@@H](CCCCN)C(=O)N[C@@H](CC(C)C)C(=O)N[C@@H](CCC(N)=O)C(=O)N[C@@H](CC(=O)O)C(=O)N[C@H](C(=O)N[C@@H](Cc1c[nH]cn1)C(=O)N[C@@H](CC(N)=O)C(=O)N[C@@H](Cc1ccccc1)C(=O)N[C@H](C(=O)N[C@@H](C)C(N)=O)C(C)C)C(C)C)C(C)C` (X7-SEIQLMHNLGKHLNSMERVEWLRKKLQDVHNFVA-NH2): the EC50 in test [1] turned out to be 5.5 nM; in test [3], 5 nM. The Intrinsic activity in test [2] and in test [4] was 1 throughout. The pKD in test [5] worked out at 8.9.
